Assay results taken from paper PMC4503722, “Novel Phenotypic Outcomes Identified for a Public Collection of Approved Drugs from a Publicly Accessible Panel of Assays” (PLoS ONE, 2015).
Where two headings read alike, the source gives them in different places. *1 amine or outer side, *2 acyl side, *3 side chain or, on linkers, in order; H or OH if unused. Where a SMILES comes first, the peptide text is derived from it. Bridges are numbered along the chain shown (N, C = ends). Roman numbers before positions name the chains, in order. [ ]: non-standard residue; d: D form. Actinocin(9to1) = Cc1c2oc3c(C)ccc(C(=O)[*:1])c3nc-2c(C(=O)[*:2])c(N)c1=O; NMeV = CN[C@H](C(=O)O)C(C)C; Sar = CNCC(=O)O

Legend:
Test in all cases: cells
[1] = tested on: nuclear β-catenin in C2C12 cells; type: cell-based
HCT116 = type: cell-based
DLD-1 = type: cell-based
NCI-H716 cells = type: cell-based, Human
INS-1E cells = type: cell-based, rat
SW480 = type: cell-based
[2] = tested on: HCT116 cells treated with a GSK3β inhibitor; type: cell-based
HeLa cells = type: cell-based; settings: IC50 / EC50; HeLa; read-out: CellCycle G2/M
[3] = tested on: endothelial tube formation in co-cultures of ECFCs and ADSCs treated with VEGF; type: cell-based, human
[4] = IC50 / EC50, C2C12 beta-catenin translocation, read-out: Wnt Pathway
[5] = basal, read-out: Basal_Viability ATP HCT116
[6] = basal, read-out: Basal_Viability ATP DLD-1
[7] = IC50 / EC50, NCI-H716, read-out: GLP 1 Secretion
[8] = IC50 / EC50, INS-1E, read-out: Insulin Secretion
[9] = basal, read-out: Basal_Viability ATP SW480
[10] = GSK3b inhibitor pretreated, read-out: GSK3b inh pretreated_Viability ATP HCT116
[11] = Rattus norvegicus, IC50 / EC50, INS-1E, read-out: Insulin Secretion
[12] = Mus musculus, C2C12, IC50 / EC50, C2C12 beta-catenin translocation, read-out: Wnt Pathway
[13] = Homo sapiens, HCT-116, basal, read-out: Basal_Viability ATP HCT116
[14] = Homo sapiens, DLD-1, basal, read-out: Basal_Viability ATP DLD-1
[15] = Homo sapiens, IC50 / EC50, NCI-H716, read-out: GLP 1 Secretion
[16] = Homo sapiens, SW480, basal, read-out: Basal_Viability ATP SW480
[17] = Homo sapiens, HCT-116, GSK3b inhibitor pretreated, read-out: GSK3b inh pretreated_Viability ATP HCT116
[18] = Homo sapiens, IC50 / EC50, endothelial tube area, ADSC/ECFC co-culture, read-out: Anti-Angiogenesis

Janssen brand of muromonab-cd3
EC50 [1, 4]: > 10 µM
IC50 (HCT116; [5]): 2.64 µM
IC50 (DLD-1; [6]): 2.81 µM
EC50 (NCI-H716 cells; [7]): 0.79 µM
EC50 (INS-1E cells; [8]): > 10 µM
IC50 (SW480; [9]): 3.22 µM
IC50 [2, 10]: 3.66 µM
EC50 (HeLa cells): > 10 µM

CCC1=C(C)CN(C(=O)NCCc2ccc(S(=O)(=O)NC(=O)N[C@H]3CC[C@H](C)CC3)cc2)C1=O [glimepiride, reference compound]
EC50 ([1]; Mus musculus, C2C12, Table 2, C2C12, […], 20 / 20.1 coded, read-out: Wnt pot. EC50): > 10 µM
IC50 (HCT116; Homo sapiens, HCT-116, 72 h, read-out: HCT-116 viab. IC50, Table 2, basal, 72 h, Cell TiterGlo, non-adherent, 20 coded): > 20 µM
IC50 (DLD-1; Homo sapiens, DLD-1, 72 h, Table 2, 72 h, Cell TiterGlo, non-adherent, 20 coded, read-out: DLD-1 viab. IC50): > 20 µM
EC50 (NCI-H716 cells; Homo sapiens, NCI-H716, read-out: GLP1 sec. EC50): > 10 µM
EC50 (INS-1E cells; Rattus norvegicus, INS-1E, read-out: Ins. sec. EC50): 0.004 µM
EC50 (INS-1E cells; [11]): 0.00406 µM
EC50 (INS-1E cells; Rattus norvegicus, INS-1E, 5 mM glucose, read-out: insulin secretion EC50): 0.0041 µM
IC50 (SW480; Homo sapiens, SW480, 72 h, Table 2, 72 h, Cell TiterGlo, non-adherent, 20 coded, read-out: SW480 viab. IC50): > 20 µM
IC50 ([2]; Homo sapiens, HCT-116, read-out: HCT-116 (GSK3β) viab. IC50, Table 2, GSK3β inhibitor LY2090314 20 nM, 72 h, Cell TiterGlo, 20 coded): > 20 µM
IC50 ([3]; Homo sapiens, Table 2, primary assay tube area, 20 = no response in concentration-response, 20.1 = inactive in single concentration testing, read-out: Anti-Angio IC50): > 10 µM

Cc1cc(CC(C)CC(C)(C)C)n(O)c(=O)c1 (stereo not drawn) [Piroctonum]
EC50 [1, 4]: 0.591 µM
IC50 (HCT116; [5]): 0.772 µM
IC50 (DLD-1; [6]): 1.08 µM
EC50 (NCI-H716 cells; [7]): > 10 µM
EC50 (INS-1E cells; [8]): > 10 µM
IC50 (SW480; [9]): 0.581 µM
IC50 [2, 10]: 0.506 µM
EC50 (HeLa cells): > 10 µM

C/C(=C(/CCOC(=O)C(C)C)SS/C(CCOC(=O)C(C)C)=C(\C)N(C=O)Cc1cnc(C)nc1N)N(C=O)Cc1cnc(C)nc1N [sulbutiamine]
EC50 [1, 12]: > 10 µM
IC50 (HCT116; [13]): > 20 µM
IC50 (DLD-1; [14]): > 20 µM
EC50 (NCI-H716 cells; [15]): 2.39 µM
EC50 (INS-1E cells; [11]): > 20 µM
IC50 (SW480; [16]): > 20 µM
IC50 [2, 17]: > 20 µM

NC(=O)C1(N2CCCCC2)CCN(CCCN2c3ccccc3CCc3ccc(Cl)cc32)CC1 [Clocapramine]
EC50 [1, 12]: > 20 µM
IC50 (HCT116; [13]): 3.41 µM
IC50 (DLD-1; [14]): 5.35 µM
EC50 (NCI-H716 cells; [15]): 18.3 µM
EC50 (INS-1E cells; [11]): 10.1 µM
IC50 (SW480; [16]): 3.69 µM
IC50 [2, 17]: 3.64 µM
IC50 [3, 18]: 3.4 µM

O=C(O)c1ccccc1-c1c2cc(I)c(=O)c(I)c-2oc2c(I)c(O)c(I)cc12 [Erythrosin b]
EC50 [1, 4]: > 10 µM
IC50 (HCT116; [5]): > 20 µM
IC50 (DLD-1; [6]): > 20 µM
EC50 (NCI-H716 cells; [7]): 2.93 µM
EC50 (INS-1E cells; [8]): > 10 µM
IC50 (SW480; [9]): > 20 µM
IC50 [2, 10]: > 20 µM
IC50 ([3]; IC50 / EC50, endothelial tube area, ADSC/ECFC co-culture, read-out: Anti-Angiogenesis): > 10 µM

CC(C)(C)CC(C)(C)c1ccc(O)c(Cc2ccc(Cl)cc2Cl)c1 [Clofoctol]
EC50 ([1]; Mus musculus, C2C12, S2 Table, module primary assay, 20 / 20.1 codes per legend, read-out: Wnt Pathway): > 10 µM
IC50 (HCT116; Homo sapiens, HCT-116, basal, HCT116, read-out: Basal_Viability ATP HCT116): 5.31 µM
IC50 (DLD-1; Homo sapiens, DLD-1, basal, DLD-1, read-out: Basal_Viability ATP DLD-1): 2.18 µM
EC50 (NCI-H716 cells; Homo sapiens, NCI-H716, read-out: GLP 1 Secretion): 0.544 µM
EC50 (INS-1E cells; Rattus norvegicus, INS-1E, read-out: Insulin Secretion): > 20 µM
IC50 (SW480; Homo sapiens, SW480, basal, SW480, read-out: Basal_Viability ATP SW480): 3.97 µM
IC50 ([2]; Homo sapiens, HCT-116, HCT116 pretreated with GSK3b inhibitor, read-out: GSK3b inh pretreated_Viability ATP HCT116): 4.73 µM

COc1ccc(OC(=O)N(CC(=O)O)Cc2ccc(OCCc3nc(-c4ccccc4)oc3C)cc2)cc1
EC50 ([1]; read-out: Wnt Pathway): > 10 µM
IC50 (HCT116; read-out: Basal_Viability ATP HCT116): 7.65 µM
IC50 (DLD-1; read-out: Basal_Viability ATP DLD-1): 9.55 µM
EC50 (NCI-H716 cells; read-out: GLP 1 Secretion): 1.54 µM
EC50 (INS-1E cells; read-out: Insulin Secretion): > 10 µM
IC50 (SW480; read-out: Basal_Viability ATP SW480): 6.23 µM
IC50 ([2]; read-out: GSK3b inh pretreated_Viability ATP HCT116): 6.13 µM
IC50 ([3]; read-out: Anti-Angiogenesis): > 10 µM

Cc1c2oc3c(C)ccc(C(=O)N[C@@H]4C(=O)N[C@H](C(C)C)C(=O)N5CCC[C@H]5C(=O)N(C)CC(=O)N(C)[C@@H](C(C)C)C(=O)O[C@@H]4C)c3nc-2c(C(=O)N[C@@H]2C(=O)N[C@H](C(C)C)C(=O)N3CCC[C@H]3C(=O)N(C)CC(=O)N(C)[C@@H](C(C)C)C(=O)O[C@@H]2C)c(N)c1=O [Dactinomycin] (I: T[dV]P[Sar][NMeV] / II: T[dV]P[Sar][NMeV]; ester I:1-I:C, II:1-II:C; linker I:N-II:N via Actinocin(9to1))
EC50 ([1]; Mus musculus, IC50 / EC50, C2C12 beta-catenin translocation, read-out: Wnt Pathway): 0.0015 µM
IC50 (HCT116; Homo sapiens, HCT-116, read-out: Basal_Viability ATP HCT116): 12.6 µM
IC50 (DLD-1; Homo sapiens, DLD-1, read-out: Basal_Viability ATP DLD-1): 0.0667 µM
EC50 (NCI-H716 cells; [15]): > 10 µM
EC50 (INS-1E cells; [11]): > 10 µM
IC50 (SW480; Homo sapiens, SW480, read-out: Basal_Viability ATP SW480): 0.0667 µM
IC50 [2, 17]: > 20 µM
IC50 [3, 18]: 0.001 µM
